Blank lines part the entries; values can stand above or below the compound they belong to.
Tests used:
[1] = Processed sample stability in final extract; format: physicochemical; conditions: 4°C, autosampler, 25.1 h
[2] = Long-term stability of unprocessed plasma samples at −80°C; format: in vitro ADME; conditions: human plasma
[3] = Reinjection stability in final extract; format: physicochemical; conditions: reinjected, 4°C, autosampler, 25.95 h
[4] = Pre-processed stability in human plasma; format: in vitro ADME; conditions: 2.5 h
[5] = Freeze-thaw stability of unprocessed plasma samples; format: in vitro ADME; conditions: human plasma, 3 freeze (-80°C)-thaw cycles
[6] = requires confirmation in prospective studies; cited from earlier work
[7] = RT (20–25°C), yellow light, nominal 15 ng/mL
[8] = RT (20–25°C), yellow light, nominal 1500 ng/mL

Accuracy vs fresh QCs ([1]; nominal 15 ng/mL): 99.0%
Accuracy vs. nominal concentration ([1]; nominal 15 ng/mL): 110%
Mean measured concentration ([1]; nominal 15 ng/mL): 16.5 ng/mL
Accuracy vs fresh QCs ([1]; nominal 1500 ng/mL): 100%
Accuracy vs. nominal concentration ([1]; nominal 1500 ng/mL): 98.7%
Mean measured concentration ([1]; nominal 1500 ng/mL): 1480 ng/mL
Accuracy vs fresh QCs ([2]; 3 months, nominal 15 ng/mL): 94.0%
Accuracy vs. nominal concentration ([2]; 3 months, nominal 15 ng/mL): 99.8%
Mean measured concentration ([2]; 3 months, nominal 15 ng/mL): 15.0 ng/mL
Accuracy vs fresh QCs ([2]; 3 months, nominal 150 ng/mL): 92.8%
Accuracy vs. nominal concentration ([2]; 3 months, nominal 150 ng/mL): 102%
Mean measured concentration ([2]; 3 months, nominal 150 ng/mL): 153 ng/mL
Accuracy vs fresh QCs ([2]; 3 months, nominal 1500 ng/mL): 92.8%
Accuracy vs. nominal concentration ([2]; 3 months, nominal 1500 ng/mL): 96.0%
Mean measured concentration ([2]; 3 months, nominal 1500 ng/mL): 1440 ng/mL
Accuracy vs fresh QCs ([2]; 7 months, nominal 15 ng/mL): 92.1%
Accuracy vs. nominal concentration ([2]; 7 months, nominal 15 ng/mL): 101.3%
Mean measured concentration ([2]; 7 months, nominal 15 ng/mL): 15.2 ng/mL
Accuracy vs fresh QCs ([2]; 7 months, nominal 150 ng/mL): 85.7%
Accuracy vs. nominal concentration ([2]; 7 months, nominal 150 ng/mL): 109%
Mean measured concentration ([2]; 7 months, nominal 150 ng/mL): 163 ng/mL
Accuracy vs fresh QCs ([2]; 7 months, nominal 1500 ng/mL): 91.6%
Accuracy vs. nominal concentration ([2]; 7 months, nominal 1500 ng/mL): 92.2%
Mean measured concentration ([2]; 7 months, nominal 1500 ng/mL): 1383 ng/mL
Accuracy vs fresh QCs ([2]; 12 months, nominal 15 ng/mL): 96.4%
Accuracy vs. nominal concentration ([2]; 12 months, nominal 15 ng/mL): 104%
Mean measured concentration ([2]; 12 months, nominal 15 ng/mL): 15.6 ng/mL
Accuracy vs fresh QCs ([2]; 12 months, nominal 150 ng/mL): 95.3%
Accuracy vs. nominal concentration ([2]; 12 months, nominal 150 ng/mL): 105%
Mean measured concentration ([2]; 12 months, nominal 150 ng/mL): 157 ng/mL
Accuracy vs fresh QCs ([2]; 12 months, nominal 1500 ng/mL): 87.0%
Accuracy vs. nominal concentration ([2]; 12 months, nominal 1500 ng/mL): 108%
Mean measured concentration ([2]; 12 months, nominal 1500 ng/mL): 1613 ng/mL
Accuracy vs fresh QCs ([3]; nominal 15 ng/mL): 100%
Accuracy vs. nominal concentration ([3]; nominal 15 ng/mL): 112%
Mean measured concentration ([3]; nominal 15 ng/mL): 16.7 ng/mL
Accuracy vs fresh QCs ([3]; nominal 150 ng/mL): 99.0%
Accuracy vs. nominal concentration ([3]; nominal 150 ng/mL): 106%
Mean measured concentration ([3]; nominal 150 ng/mL): 160 ng/mL
Accuracy vs fresh QCs ([3]; nominal 1500 ng/mL): 100%
Mean measured concentration ([3]; nominal 1500 ng/mL): 1473 ng/mL
Accuracy vs fresh QCs ([4]; 37°C, dark, nominal 15 ng/mL): 94.8%
Accuracy vs. nominal concentration ([4]; 37°C, dark, nominal 15 ng/mL): 103%
Mean measured concentration ([4]; 37°C, dark, nominal 15 ng/mL): 15.4 ng/mL
Accuracy vs fresh QCs ([4]; 37°C, dark, nominal 1500 ng/mL): 102%
Accuracy vs. nominal concentration ([4]; 37°C, dark, nominal 1500 ng/mL): 99.3%
Mean measured concentration ([4]; 37°C, dark, nominal 1500 ng/mL): 1490 ng/mL
Accuracy vs fresh QCs [4, 7]: 95.6%
Accuracy vs. nominal concentration [4, 7]: 104%
Mean measured concentration [4, 7]: 15.5 ng/mL
Accuracy vs fresh QCs [4, 8]: 102%
Accuracy vs. nominal concentration [4, 8]: 99.6%
Mean measured concentration [4, 8]: 1493 ng/mL
Accuracy vs fresh QCs ([5]; nominal 15 ng/mL): 98.1%
Accuracy vs. nominal concentration ([5]; nominal 15 ng/mL): 99.8%
Mean measured concentration ([5]; nominal 15 ng/mL): 15.0 ng/mL
Accuracy vs fresh QCs ([5]; nominal 1500 ng/mL): 98.7%
Accuracy vs. nominal concentration ([5]; nominal 1500 ng/mL): 96.9%
Mean measured concentration ([5]; nominal 1500 ng/mL): 1453 ng/mL
Structure (SMILES): CC(=O)c1c(C)c2cnc(Nc3ccc(N4CCNCC4)cn3)nc2n(C2CCCC2)c1=O [Palbociclib, palbociclib]

Accuracy vs fresh QCs ([1]; nominal 15 ng/mL): 95.6%
Mean measured concentration ([1]; nominal 15 ng/mL): 15.9 ng/mL
Accuracy vs fresh QCs ([1]; nominal 1500 ng/mL): 102%
Mean measured concentration ([1]; nominal 1500 ng/mL): 1510 ng/mL
Accuracy vs fresh QCs ([2]; 3 months, nominal 15 ng/mL): 98.6%
Mean measured concentration ([2]; 3 months, nominal 15 ng/mL): 14.7 ng/mL
Accuracy vs fresh QCs ([2]; 3 months, nominal 150 ng/mL): 95.5%
Mean measured concentration ([2]; 3 months, nominal 150 ng/mL): 149 ng/mL
Accuracy vs fresh QCs ([2]; 3 months, nominal 1500 ng/mL): 95.6%
Mean measured concentration ([2]; 3 months, nominal 1500 ng/mL): 1437 ng/mL
Mean measured concentration ([2]; 7 months, nominal 15 ng/mL): 14.1 ng/mL
Accuracy vs fresh QCs ([2]; 7 months, nominal 150 ng/mL): 98.9%
Mean measured concentration ([2]; 7 months, nominal 150 ng/mL): 156 ng/mL
Accuracy vs fresh QCs ([2]; 7 months, nominal 1500 ng/mL): 97.5%
Mean measured concentration ([2]; 7 months, nominal 1500 ng/mL): 1443 ng/mL
Mean measured concentration ([2]; 12 months, nominal 15 ng/mL): 15.2 ng/mL
Accuracy vs fresh QCs ([2]; 12 months, nominal 150 ng/mL): 99.0%
Mean measured concentration ([2]; 12 months, nominal 150 ng/mL): 164 ng/mL
Accuracy vs fresh QCs ([2]; 12 months, nominal 1500 ng/mL): 96.6%
Mean measured concentration ([2]; 12 months, nominal 1500 ng/mL): 1583 ng/mL
Accuracy vs fresh QCs ([3]; nominal 15 ng/mL): 98.2%
Mean measured concentration ([3]; nominal 15 ng/mL): 16.4 ng/mL
Accuracy vs fresh QCs ([3]; nominal 150 ng/mL): 98.7%
Mean measured concentration ([3]; nominal 150 ng/mL): 155 ng/mL
Accuracy vs fresh QCs ([3]; nominal 1500 ng/mL): 103%
Mean measured concentration ([3]; nominal 1500 ng/mL): 1527 ng/mL
Accuracy vs fresh QCs ([4]; 37°C, dark, nominal 15 ng/mL): 97.5%
Mean measured concentration ([4]; 37°C, dark, nominal 15 ng/mL): 15.4 ng/mL
Mean measured concentration ([4]; 37°C, dark, nominal 1500 ng/mL): 1527 ng/mL
Accuracy vs fresh QCs [4, 7]: 99.4%
Mean measured concentration [4, 7]: 15.7 ng/mL
Mean measured concentration [4, 8]: 1550 ng/mL
Mean measured concentration ([5]; nominal 15 ng/mL): 15.1 ng/mL
Accuracy vs fresh QCs ([5]; nominal 1500 ng/mL): 98.8%
Accuracy vs. nominal concentration ([5]; nominal 1500 ng/mL): 98.7%
Mean measured concentration ([5]; nominal 1500 ng/mL): 1480 ng/mL
Structure (SMILES): CCN1CCN(Cc2ccc(Nc3ncc(F)c(-c4cc(F)c5nc(C)n(C(C)C)c5c4)n3)nc2)CC1 [Abemaciclib, abemaciclib]
Proposed target Cmin for TDM [6]: 200 to 210 ng/mL

Accuracy vs fresh QCs ([1]; nominal 15 ng/mL): 99.2%
Accuracy vs. nominal concentration ([1]; nominal 15 ng/mL): 112%
Mean measured concentration ([1]; nominal 15 ng/mL): 16.7 ng/mL
Accuracy vs fresh QCs ([1]; nominal 1500 ng/mL): 99.8%
Accuracy vs. nominal concentration ([1]; nominal 1500 ng/mL): 98.7%
Mean measured concentration ([1]; nominal 1500 ng/mL): 1480 ng/mL
Accuracy vs fresh QCs ([2]; 3 months, nominal 15 ng/mL): 106%
Accuracy vs. nominal concentration ([2]; 3 months, nominal 15 ng/mL): 102%
Mean measured concentration ([2]; 3 months, nominal 15 ng/mL): 15.3 ng/mL
Accuracy vs fresh QCs ([2]; 3 months, nominal 150 ng/mL): 105%
Accuracy vs. nominal concentration ([2]; 3 months, nominal 150 ng/mL): 98.7%
Mean measured concentration ([2]; 3 months, nominal 150 ng/mL): 148 ng/mL
Accuracy vs fresh QCs ([2]; 3 months, nominal 1500 ng/mL): 104%
Accuracy vs. nominal concentration ([2]; 3 months, nominal 1500 ng/mL): 94.2%
Mean measured concentration ([2]; 3 months, nominal 1500 ng/mL): 1413 ng/mL
Accuracy vs fresh QCs ([2]; 7 months, nominal 15 ng/mL): 90.3%
Accuracy vs. nominal concentration ([2]; 7 months, nominal 15 ng/mL): 98.4%
Mean measured concentration ([2]; 7 months, nominal 15 ng/mL): 14.8 ng/mL
Accuracy vs fresh QCs ([2]; 7 months, nominal 150 ng/mL): 86.0%
Accuracy vs. nominal concentration ([2]; 7 months, nominal 150 ng/mL): 106%
Mean measured concentration ([2]; 7 months, nominal 150 ng/mL): 160 ng/mL
Accuracy vs fresh QCs ([2]; 7 months, nominal 1500 ng/mL): 88.8%
Accuracy vs. nominal concentration ([2]; 7 months, nominal 1500 ng/mL): 93.6%
Mean measured concentration ([2]; 7 months, nominal 1500 ng/mL): 1403 ng/mL
Accuracy vs fresh QCs ([2]; 12 months, nominal 15 ng/mL): 107%
Accuracy vs. nominal concentration ([2]; 12 months, nominal 15 ng/mL): 105%
Mean measured concentration ([2]; 12 months, nominal 15 ng/mL): 15.7 ng/mL
Accuracy vs fresh QCs ([2]; 12 months, nominal 150 ng/mL): 105%
Accuracy vs. nominal concentration ([2]; 12 months, nominal 150 ng/mL): 108%
Mean measured concentration ([2]; 12 months, nominal 150 ng/mL): 161 ng/mL
Accuracy vs fresh QCs ([2]; 12 months, nominal 1500 ng/mL): 101%
Accuracy vs. nominal concentration ([2]; 12 months, nominal 1500 ng/mL): 108%
Mean measured concentration ([2]; 12 months, nominal 1500 ng/mL): 1613 ng/mL
Accuracy vs fresh QCs ([3]; nominal 15 ng/mL): 97.8%
Accuracy vs. nominal concentration ([3]; nominal 15 ng/mL): 110%
Mean measured concentration ([3]; nominal 15 ng/mL): 16.5 ng/mL
Accuracy vs fresh QCs ([3]; nominal 150 ng/mL): 101%
Accuracy vs. nominal concentration ([3]; nominal 150 ng/mL): 107%
Mean measured concentration ([3]; nominal 150 ng/mL): 161 ng/mL
Accuracy vs fresh QCs ([3]; nominal 1500 ng/mL): 101%
Accuracy vs. nominal concentration ([3]; nominal 1500 ng/mL): 100%
Mean measured concentration ([3]; nominal 1500 ng/mL): 1503 ng/mL
Accuracy vs fresh QCs ([4]; 37°C, dark, nominal 15 ng/mL): 97.8%
Accuracy vs. nominal concentration ([4]; 37°C, dark, nominal 15 ng/mL): 106%
Mean measured concentration ([4]; 37°C, dark, nominal 15 ng/mL): 15.9 ng/mL
Accuracy vs fresh QCs ([4]; 37°C, dark, nominal 1500 ng/mL): 102%
Accuracy vs. nominal concentration ([4]; 37°C, dark, nominal 1500 ng/mL): 100%
Mean measured concentration ([4]; 37°C, dark, nominal 1500 ng/mL): 1500 ng/mL
Accuracy vs fresh QCs [4, 7]: 98.0%
Accuracy vs. nominal concentration [4, 7]: 106%
Mean measured concentration [4, 7]: 15.9 ng/mL
Accuracy vs fresh QCs [4, 8]: 102%
Accuracy vs. nominal concentration [4, 8]: 100%
Mean measured concentration [4, 8]: 1503 ng/mL
Accuracy vs fresh QCs ([5]; nominal 15 ng/mL): 98.3%
Accuracy vs. nominal concentration ([5]; nominal 15 ng/mL): 100%
Mean measured concentration ([5]; nominal 15 ng/mL): 15.0 ng/mL
Accuracy vs fresh QCs ([5]; nominal 1500 ng/mL): 97.1%
Accuracy vs. nominal concentration ([5]; nominal 1500 ng/mL): 97.1%
Mean measured concentration ([5]; nominal 1500 ng/mL): 1457 ng/mL
Structure (SMILES): CN(C)C(=O)c1cc2cnc(Nc3ccc(N4CCNCC4)cn3)nc2n1C1CCCC1 [Ribociclib, ribociclib]
Proposed target Cmin for TDM [6]: 711 ng/mL
